From patent US20260216239A1 (Arizona Board of Regents on Behalf of the University of …, priority 2020, published 2026)
Like-named read-outs stand apart in the source and are kept apart here.

Assays:
acute kidney injury = settings: up to 30 mg/kg of CORM-2; cited from earlier work
Atheris nitschei venom = settings: previously characterized by this laboratory; cited from earlier work
[1] = test system: C. scutulatus scutulatus (type B) venom; assay: Rabbit model of subcutaneous envenomation, thrombelastography and vital signs; type: in vivo, New Zealand White rabbits; settings: n=1
Text: Male New Zealand White rabbits (2-3 kg) were procured from Charles River Laboratories (San Diego, CA, USA) and housed within our animal facility and allowed food and water ad libitum for at least 1 week prior to experimentation.
Rabbits were briefly restrained and had one ear closely clipped and cleaned with a 70% isopropyl alcohol pad. A 22 G plastic catheter was placed in the central ear artery and another similar catheter placed in the marginal ear vein; both catheters were connected to an end cap with a rubber diaphragm that allowed the withdrawal of blood samples and administration of medications. The animals were sedated intravenously with 1 mg/kg midazolam, with supplemental doses of 0.5-1 mg/kg provided during experimentation to maintain sedation. […] Heart rate (HR) and SpO2 were recorded at baseline and every 15 min thereafter until the end of the experiment.
An approximately 5 cm by 5 cm area of skin over either flank of the rabbit, midway between the lumbar spine and mid abdomen, was closely shaved and cleaned with a 70% isopropyl alcohol pad. A 1 cm circle was drawn with a felt tip marker in the center of this area, which served as the injection site for venom and antivenom as appropriate. After obtaining baseline HR value, SpO2 value, and the initial blood sample, venom was injected subcutaneously in the middle of the circle through a ⅝ inch long, 25 G needle. […]

human plasma = type: biochemical
Method: Given that the only compounds present with anions different from RuCl3 potentially available to displace Cl in the PBS used was KH2PO4 (1.5 mM) and Na2HPO4 (8.1 mM), a comparison of the effects of 1 and 10 μM RuCl3 (final concentration) dissolved in dH2O or PBS was performed in plasma as a 1% addition (v/v) with coagulation assessed via thrombelastography.
The volumes of subsequently described plasmatic and other additives summed to a final volume of 360 μL. Samples were composed of 320 μL of plasma; 16.4 μL of PBS, 20 μL of 200 mM CaCl2), and 3.6 μL of PBS, RuCl3, or venom solution mixture, which were pipetted into a disposable cup in a Thrombelastograph® hemostasis system (Model 5000, Haemonetics Inc., Braintree, MA, USA) at 37° C., and then rapidly mixed by moving the cup up against and then away from the plastic pin five times. The PBS, RuCl3, or venom solution mixtures was always the last constituent added prior to mixing and data collection. The following viscoelastic parameters described previously (see, Nielsen, V. G.; et al., Biometals 2016, 29, 913-919; Nielsen, V. G.; Losada, P. A. Basic Clin. Pharmacol. Toxicol. 2017, 120, 207-212; Nielsen, V. G.; Frank, N. J. Thromb. Thrombolysis 2019, 47, 533-539; Nielsen, V. G.; Bazzell, C. M. J. Thromb. Thrombolysis 2017, 43, 203-208; Nielsen, V. G.; Matika, R. W. Hum. Exp. Toxicol. 2017, 36, 727-733; Nielsen, V. G.; et al., Toxins 2018, 10, 322; Nielsen, V. G.; et al., Biometals 2018, 31, 51-59; Nielsen, V. G.; Frank, N. et al., Biometals 2018, 31, 951-959; Nielsen, V. G.; et al., Toxins 2019, 11, 94; Nielsen, V. G.; Frank, N. Hum Exp. Toxicol. 2019, 38, 216-226; Nielsen, V. G. J. Thromb. Thrombolysis 2019, 48, 256-262; Nielsen, V. G.; et al., Blood Coagul. Fibrinolysis 2019, 30, 379-384; Nielsen, V. G. J. Thromb. Thrombolysis 2019, 47, 73-79) were measured: time to maximum rate of thrombus generation (TMRTG): this is the time interval (minutes) observed prior to maximum speed of clot growth; maximum rate of thrombus generation (MRTG): this is the maximum velocity of clot growth observed (dynes/cm^2/s); and total thrombus generation (TTG, dynes/cm^2), the final viscoelastic resistance observed after clot formation. Data were collected until the clot strength reached its final plateau (maximum amplitude) that was stable for 3 min.
Thus, experiments wherein RuCl3 was dissolved in either dH2O or PBS were conducted with the final concentration of RuCl3 in plasma being 1 or 10 μM. Data were collected until maximum amplitude was observed.
Specific volumes of subsequently described plasma and chemical additives varied by condition but summated to 360 μl. Sample composition consisted of 320 μl of plasma; 16.4 μl of PBS, 20 μl of 200 mM CaCl2, and 3.6 μl of one of five subsequently described solutions, which were placed into a disposable cup in a computer-controlled Thrombelastograph® hemostasis system (Model 5000, Haemonetics Inc., Braintree, MA, USA) at 37° C., and then rapidly mixed by moving the cup up against and then away from the plastic pin five times before leaving the mixture between the cup and pin.

[2] = 10 vs 1 μM RuCl3 (final) dissolved in PBS
[3] = 10 vs 1 μM RuCl3 (final) dissolved in dH2O

[C-]#[O+].[C-]#[O+].[C-]#[O+].[C-]#[O+].[C-]#[O+].[C-]#[O+].[Cl][Ru][Cl].[Cl][Ru][Cl] [CORM-2, tricarbonyldichlororuthenium(II) dimer]
protection against acute kidney injury (acute kidney injury): protected against injury
tolerability (acute kidney injury): well tolerated
CORM-2/ iRM Inhibition (Atheris nitschei venom): Yes
plasmatic velocity of clot formation and strength ([1]; 10 mg/kg CORM-2 injected into venom site 5 min after venom 11.2 mg/kg): appeared to preserve the velocity of clot formation and strength until the third hour after venom injection
plasmatic velocity of clot formation ([1]; 20 mg/kg CORM-2 injected into venom site after venom 11.2 mg/kg): minimally affected for the three hours after venom injection

[Cl][Ru]([Cl])[Cl] [RuCl3, ruthenium(III) chloride]
increase in MRTG values (human plasma): 37-61%
maximum rate of thrombus generation (MRTG) (human plasma; 1 μM RuCl3 dissolved in PBS vs control conditions, preliminary investigation): increased
total thrombus generation (TTG) (human plasma; 1 and 10 μM RuCl3 in dH2O or PBS, interaction of RuCl3 and fluid): decreased
maximum rate of thrombus generation (MRTG) (human plasma; [2]): increase
time to maximum rate of thrombus generation (TMRTG) (human plasma; [2]): significantly decrease
maximum rate of thrombus generation (MRTG) (human plasma; [3]): increase
time to maximum rate of thrombus generation (TMRTG) (human plasma; [3]): significant decrease
plasmatic TMRTG or TTG values (human plasma; RuCl3 1 μM final in water or PBS vs plasma without RuCl3): no significant differences
